Measured values from patent US9567302B2, “Carbamate compounds and of making and using same” (Abide Therapeutics, Inc., priority 2012, dated 2017).

Legend:
hMAGL = target: T1, hMAGL (Homo sapiens, UniProt Q99685); experiment: Competitive ABPP with human MAGL recombinantly expressed in HEK293T cells; assay type: biochemical; settings: Table 1; hMAGL-HEK293T cell lysates
T1 construct: expressed in transfected cells; host or cells: HEK293T
T1 sequence (Q99685 1-303): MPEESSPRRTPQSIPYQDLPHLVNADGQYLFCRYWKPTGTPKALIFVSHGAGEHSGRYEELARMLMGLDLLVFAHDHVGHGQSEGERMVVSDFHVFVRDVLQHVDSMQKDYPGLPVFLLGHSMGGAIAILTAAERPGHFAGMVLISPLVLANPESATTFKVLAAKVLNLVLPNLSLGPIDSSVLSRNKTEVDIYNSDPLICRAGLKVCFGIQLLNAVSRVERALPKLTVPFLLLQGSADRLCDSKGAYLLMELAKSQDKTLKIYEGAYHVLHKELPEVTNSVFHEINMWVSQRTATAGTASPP
Method: (§1) Proteomes (mouse brain membrane fraction or cell lysates) (50 μL, 1.0 mg/ml total protein concentration) were preincubated with varying concentrations of inhibitors at 37° C. After 30 min, FP-Rh (1.0 μL, 50 μM in DMSO) was added and the mixture was incubated for another 30 min at 37° C. Reactions were quenched with SDS loading buffer (50 μL—4×) and run on SDS-PAGE.
Recombinant Expression of Human MAGL in HEK293T Cells.
Cell lysates were diluted with mock proteomes for use in competitive ABPP experiments.

MAGL [1] = target: T2, MAGL (Mus musculus, UniProt O35678); experiment: In vitro competitive activity-based protein profiling (FP-Rh), mouse MAGL; assay type: biochemical; set-up: from tissue; host or cells: mouse brain membrane fraction; settings: Table 1, mouse proteome, 30 min preincubation at 37° C.
T2 sequence (O35678 1-303): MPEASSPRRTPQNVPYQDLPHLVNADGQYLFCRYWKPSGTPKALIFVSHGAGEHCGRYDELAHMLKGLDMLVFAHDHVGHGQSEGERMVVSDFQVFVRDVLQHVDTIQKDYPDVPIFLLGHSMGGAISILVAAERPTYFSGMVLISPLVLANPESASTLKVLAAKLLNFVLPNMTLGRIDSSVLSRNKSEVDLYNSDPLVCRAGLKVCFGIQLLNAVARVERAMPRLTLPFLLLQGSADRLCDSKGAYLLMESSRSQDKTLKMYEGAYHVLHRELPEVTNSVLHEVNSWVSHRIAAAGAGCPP
Method: (§2) In Vitro Competitive Activity-Based Protein Profiling.
as §1

ABHD6 [2] = target: T3, ABHD6 (Mus musculus, UniProt Q8R2Y0); experiment: In vitro competitive activity-based protein profiling (FP-Rh), mouse ABHD6; assay type: biochemical; set-up: from tissue; host or cells: mouse brain membrane fraction; settings: Table 1, mouse proteome, 30 min preincubation at 37° C.
T3 sequence (Q8R2Y0 1-336): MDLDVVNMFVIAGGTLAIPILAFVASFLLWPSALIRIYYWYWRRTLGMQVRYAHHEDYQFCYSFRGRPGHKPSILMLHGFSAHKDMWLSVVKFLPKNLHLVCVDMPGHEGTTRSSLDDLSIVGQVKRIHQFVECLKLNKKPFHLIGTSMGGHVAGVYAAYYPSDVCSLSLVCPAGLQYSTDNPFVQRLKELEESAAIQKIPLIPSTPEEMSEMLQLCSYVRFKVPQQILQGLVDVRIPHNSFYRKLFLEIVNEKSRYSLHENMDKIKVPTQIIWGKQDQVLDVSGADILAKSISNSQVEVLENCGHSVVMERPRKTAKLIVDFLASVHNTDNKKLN
Method: as §2, §1

FAAH [3] = target: T4, FAAH (Mus musculus, UniProt O08914); experiment: In vitro competitive activity-based protein profiling (FP-Rh), mouse FAAH; assay type: biochemical; set-up: from tissue; host or cells: mouse brain membrane fraction; settings: Table 1, mouse proteome, 30 min preincubation at 37° C.
T4 sequence (O08914 1-579): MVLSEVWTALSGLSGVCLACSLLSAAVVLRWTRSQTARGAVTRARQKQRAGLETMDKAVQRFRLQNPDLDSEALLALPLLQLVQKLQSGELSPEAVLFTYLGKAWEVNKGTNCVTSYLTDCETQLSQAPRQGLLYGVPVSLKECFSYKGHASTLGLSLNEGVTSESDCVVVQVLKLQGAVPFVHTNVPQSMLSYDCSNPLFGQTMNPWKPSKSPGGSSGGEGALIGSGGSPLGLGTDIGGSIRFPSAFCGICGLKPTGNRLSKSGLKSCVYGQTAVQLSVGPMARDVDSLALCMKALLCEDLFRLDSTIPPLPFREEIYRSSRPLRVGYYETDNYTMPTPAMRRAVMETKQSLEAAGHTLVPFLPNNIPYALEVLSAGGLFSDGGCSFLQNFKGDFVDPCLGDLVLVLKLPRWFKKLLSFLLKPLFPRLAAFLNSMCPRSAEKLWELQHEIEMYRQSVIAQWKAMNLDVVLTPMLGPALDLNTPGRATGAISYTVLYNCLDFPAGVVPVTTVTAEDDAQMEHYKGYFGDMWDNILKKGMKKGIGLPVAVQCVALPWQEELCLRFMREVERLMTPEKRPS
Method: as §2, §1

MAGL [4] = target: T2, MAGL; experiment: Mouse brain MAGL inhibition in proteomes from inhibitor treated mice (oral gavage); assay type: in vivo; set-up: from tissue; host or cells: mouse brain membrane fraction; settings: 20 mg/kg, p.o., C57Bl/6J mice, brain proteome 4 h following administration
Method: as §1
Preparation of Mouse Brain Proteomes from Inhibitor Treated Mice.
Inhibitors were administered to wild-type C57B1/6J by oral gavage in a vehicle of polyethylene glycol.

ABHD6 [5] = target: T3, ABHD6; experiment: In vitro competitive ABPP, % inhibition at fixed concentration, ABHD6; assay type: biochemical; set-up: from tissue
Method in brief: (§3)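 Mouse brain membrane proteome or cell lysate at 1.0 mg/ml was preincubated with inhibitor for 30 min at 37° C, then labelled with FP-Rh for another 30 min. After SDS-PAGE, activity was quantified from the fluorescent intensity of the MAGL, ABHD6 and FAAH bands.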

FAAH [6] = target: T4, FAAH; experiment: In vitro competitive ABPP, % inhibition at fixed concentration, FAAH; assay type: biochemical; set-up: from tissue
Method in brief: as §3

MAGL [7] = target: T2, MAGL; experiment: In vitro competitive ABPP, % inhibition at fixed concentration, MAGL; assay type: biochemical; set-up: from tissue
Method in brief: as §3

Row | IC50 (hMAGL) [nM] | IC50 (MAGL [1]) [nM] | IC50 (ABHD6 [2]) [nM] | IC50 (FAAH [3]) [nM] | inhibition at 10 µM (ABHD6 [5]) [%] | inhibition at 10 µM (FAAH [6]) [%] | inhibition at 10 µM (MAGL [7]) [%] | Compound | also measured
1 | < 100 | < 100 | < 100 | 1000 to 10000 | – | – | – | O=C(ON1C(=O)CCC1=O)N1CCN(Cc2cccc(Oc3ccccc3)c2)CC1 [Example 7, 2,5-Dioxopyrrolidin-1-yl 4-[(3-phenoxyphenyl)methyl]piperazine-1-carboxylate] | –
2 | < 100 | < 100 | < 100 | 100 to 1000 | – | – | – | O=C(ON1C(=O)CCC1=O)N1CCC(CCc2ccc(Cl)cc2)CC1 [Example 8, 2,5-Dioxopyrrolidin-1-yl 4-[2-(4-chlorophenyl)ethyl]piperidine-1-carboxylate] | –
3 | < 100 | < 100 | < 100 | 1000 to 10000 | – | – | – | O=C(ON1C(=O)CCC1=O)N1CCN(Cc2ccccc2Oc2ccccc2)CC1 [Example 35, 2,5-Dioxopyrrolidin-1-yl 4-[(2-phenoxyphenyl)methyl]piperazine-1-carboxylate] | –
4 | < 100 | < 100 | 1000 to 10000 | 1000 to 10000 | – | – | – | O=C(CN1CCN(C(=O)ON2C(=O)CCC2=O)CC1)Nc1cc(C(F)(F)F)ccc1Cl [Example 36, 2,5-Dioxopyrrolidin-1-yl 4-(2-((2-chloro-5-(trifluoromethyl)phenyl)amino)-2-oxoethyl)piperazine-1-carboxylate] | –
5 | < 100 | < 100 | 100 to 1000 | 1000 to 10000 | – | – | – | O=C(ON1C(=O)CCC1=O)N1CCN(Cc2ccc(Br)cc2Oc2ccccc2)CC1 [Example 37, 2,5-Dioxopyrrolidin-1-yl 4-[(4-bromo-2-phenoxyphenyl)methyl]piperazine-1-carboxylate] | –
6 | – | < 100 | 100 to 1000 | > 10000 | – | – | – | CC1CC(=O)N(OC(=O)N2CCN(C(c3ccc(Cl)cc3)c3ccc(Cl)cc3)CC2)C1=O (stereo not shown) [Example 41, 3-Methyl-2,5-dioxopyrrolidin-1-yl 4-(bis(4-chlorophenyl)methyl)piperazine-1-carboxylate] | inhibition at 20 mg/kg (MAGL [4]): > 95%
7 | – | – | – | – | – | – | – | Cc1cc(CN2CCN(C(=O)ON3C(=O)CCC3=O)CC2)cc(C(=O)N2CCOCC2)c1 [Example 208, 2,5-Dioxopyrrolidin-1-yl 4-{[3-methyl-5-(morpholine-4-carbonyl)phenyl]methyl}piperazine-1-carboxylate] | inhibition at 1 µM (ABHD6 [5]): < 25%; inhibition at 1 µM (FAAH [6]): < 25%; inhibition at 1 µM (MAGL [7]): < 25%
8 | – | – | – | – | – | – | – | O=C(ON1C(=O)CCC1=O)N1CCN(Cc2ccc(Cl)c(C(=O)N3CCOCC3)c2)CC1 [Example 209, 2,5-Dioxopyrrolidin-1-yl 4-{[4-chloro-3-(morpholine-4-carbonyl)phenyl]methyl}piperazine-1-carboxylate] | inhibition at 1 µM (ABHD6 [5]): < 25%; inhibition at 1 µM (FAAH [6]): < 25%; inhibition at 1 µM (MAGL [7]): < 25%
9 | – | – | – | – | – | – | – | O=C(ON1C(=O)CCC1=O)N1CCN(Cc2ccc(Cl)c(C(=O)N3CCC3)c2)CC1 [Example 210, 2,5-Dioxopyrrolidin-1-yl 4-{[3-(azetidine-1-carbonyl)-4-chlorophenyl]methyl}piperazine-1-carboxylate] | inhibition at 1 µM (ABHD6 [5]): 25 to 75%; inhibition at 1 µM (FAAH [6]): < 25%; inhibition at 1 µM (MAGL [7]): < 25%
10 | – | – | – | – | 25 to 75 | < 25 | 25 to 75 | O=C(ON1C(=O)CCC1=O)N1CCN(C(=O)c2cccc(Cl)c2)CC1 [Example 211, 2,5-Dioxopyrrolidin-1-yl 4-(3-chlorobenzoyl)piperazine-1-carboxylate] | –
11 | – | – | – | – | < 25 | < 25 | 25 to 75 | O=C(ON1C(=O)CCC1=O)N1CCN(C(=O)c2ccccc2)CC1 [Example 212, 2,5-Dioxopyrrolidin-1-yl 4-benzoylpiperazine-1-carboxylate] | –
12 | – | – | – | – | < 25 | < 25 | < 25 | O=C(CN1CCCCC1)N1CCN(C(=O)ON2C(=O)CCC2=O)CC1 [Example 213, 2,5-Dioxopyrrolidin-1-yl 4-[2-(piperidin-1-yl)acetyl]piperazine-1-carboxylate] | –
13 | – | – | – | – | < 25 | < 25 | < 25 | O=C(CN1CCCC1)N1CCN(C(=O)ON2C(=O)CCC2=O)CC1 [Example 214, 2,5-Dioxopyrrolidin-1-yl 4-[2-(pyrrolidin-1-yl)acetyl]piperazine-1-carboxylate] | –
14 | – | – | – | – | < 25 | < 25 | < 25 | O=C(CN1CCOCC1)N1CCN(C(=O)ON2C(=O)CCC2=O)CC1 [Example 215, 2,5-Dioxopyrrolidin-1-yl 4-[2-(morpholin-4-yl)acetyl]piperazine-1-carboxylate] | –
15 | – | – | – | – | < 25 | < 25 | < 25 | O=C(CN1CCC1)N1CCN(C(=O)ON2C(=O)CCC2=O)CC1 [Example 216, 2,5-Dioxopyrrolidin-1-yl 4-[2-(azetidin-1-yl)acetyl]piperazine-1-carboxylate] | –
16 | – | – | – | – | < 25 | < 25 | < 25 | O=C(ON1C(=O)CCC1=O)N1CCC(N2CCCC2)CC1 [Example 217, 2,5-Dioxopyrrolidin-1-yl 4-(pyrrolidin-1-yl)piperidine-1-carboxylate] | –
17 | – | – | – | – | < 25 | < 25 | < 25 | O=C(ON1C(=O)CCC1=O)N1CCC(N2CCCCC2)CC1 [Example 218, 2,5-Dioxopyrrolidin-1-yl 4-(piperidine-1-yl)piperidine-1-carboxylate] | –
18 | – | – | – | – | 25 to 75 | < 25 | < 25 | O=C(ON1C(=O)CCC1=O)N1CCC(N2CCCC2=O)CC1 [Example 219, 2,5-Dioxopyrrolidin-1-yl 4-(2-oxopyrrolidin-1-yl)piperidine-1-carboxylate] | –
19 | – | – | – | – | 25 to 75 | < 25 | < 25 | O=C(ON1C(=O)CCC1=O)N1CCC(N2CCCCC2=O)CC1 [Example 220, 2,5-Dioxopyrrolidin-1-yl 4-(2-oxopiperidin-1-yl)piperidine-1-carboxylate] | –

Row | Compound | IC50 (hMAGL) [nM] | IC50 (MAGL [1]) [nM] | IC50 (ABHD6 [2]) [nM] | IC50 (FAAH [3]) [nM] | inhibition at 10 µM (ABHD6 [5]) [%] | inhibition at 10 µM (FAAH [6]) [%] | inhibition at 10 µM (MAGL [7]) [%] | also measured
20 | COc1ccc(N2CCN(C(=O)ON3C(=O)CCC3=O)CC2)cc1 [Example 5, 2,5-Dioxopyrrolidin-1-yl 4-(4-methoxyphenyl)piperazine-1-carboxylate] | 1000 to 10000 | 1000 to 10000 | 1000 to 10000 | > 10000 | – | – | – | –
